ChEMBL document CHEMBL1122556, “Design, synthesis, and binding characteristics of an opiate receptor mimetic peptide” (J Med Chem, 1984)
pKi: −log10 of the molar value. Residues, ends and D or L forms follow the SMILES beside them. *: point of attachment. Desaminotyrosyl = O=C(CCc1ccc(O)cc1)*; Hydrocinnamoyl = O=C(CCc1ccccc1)*

Assay: Compound was evaluated for the binding strength to receptor Mimetic peptide (RMP) at 5 degree celsius, Ki was determined from its potency in displacing [Leu]-enkephalin binding.

Row | Compound | pKi
1 | CSCC[C@H](NC(=O)[C@H](Cc1ccccc1)NC(=O)CNC(=O)CNC(=O)[C@@H](N)Cc1ccc(O)cc1)C(=O)O | 4.31
2 | CC(C)C[C@H](NC(=O)[C@H](Cc1ccccc1)NC(=O)CNC(=O)CNC(=O)[C@H](N)Cc1ccccc1)C(=O)O | 4.02
3 | CC(C)C[C@@H](NC(=O)[C@@H](Cc1ccccc1)NC(=O)CNC(=O)CNC(=O)[C@H](N)Cc1ccc(O)cc1)C(=O)O | 3.40
4 | CC(C)C[C@H](NC(=O)[C@H](Cc1ccccc1)NC(=O)CNC(=O)[C@@H](N)Cc1ccc(O)cc1)C(=O)O | 3.80
5 | N=C(N)NCCC[C@H](NC(=O)[C@H](Cc1ccccc1)NC(=O)[C@@H](N)Cc1cnc[nH]1)C(=O)N[C@@H](Cc1c[nH]c2ccccc12)C(=O)O | 2.23
6 | CC(C)C[C@H](NC(=O)[C@H](Cc1ccccc1)NC(=O)CNC(=O)CNC(=O)CCc1ccc(O)cc1)C(=O)O (Desaminotyrosyl-GGFL-OH) | 3.69
7 | CC(C)C[C@H](NC(=O)[C@H](Cc1ccccc1)NC(=O)CNC(=O)CNC(=O)CCc1ccccc1)C(=O)O (Hydrocinnamoyl-GGFL-OH) | 3.21
8 | C=CCN1CC[C@]23c4c5ccc(O)c4O[C@H]2C(=O)CC[C@@]3(O)[C@H]1C5 [NALOXONE] | 2.13
